Laboratory results from PubChem BioAssay AID1963986 (Molecular Pharmacology Branch, DTP, NCI, 2024).
“And” between values parts separate entries of the source, which are not always exact repeats. Equal entries are not always repeated. Values belong to the compound of their own block, whether it stands above or below them.

Tested on: 171881-019-R-J1-PDC tumor spheroid viability
Assay: Anticancer human tumor 171881-019-R-J1-PDC patient-derived invasive breast carcinoma cell line growth inhibition [PI3K]
Conditions: spheroids with HUVEC and MSC; for viability, T/C: stronger effect = lower value
Text: Combinatorial screen of targeted agents with the PI3K inhibitors inavolisib, alpelisib, duvelisib, and copanlisib in multi-cell type tumor spheroids
A high-throughput screen of multi-cell type tumor spheroids was designed to identify active combinations of targeted small molecules and PI3K pathway inhibitors. Complex spheroids include a stromal component modeled by human endothelial cells (HUVEC) and fibroblasts modeled by human mesenchymal stem cells (MSCs). The concentration ranges selected for each drug and investigational agent were based upon clinically achievable concentrations if the clinical Cmax of the agent was known.
Compounds. The drugs and investigational agents: inavolisib (NSC800729), alpelisib (NSC765974), duvelisib (NSC772469), copanlisib (NSC816437), ipatasertib (NSC767898), afuresertib (NSC778305), talazoparib (NSC767125), sapanisertib (NSC764658), selumetinib (NSC741078), tovorafenib (DAY101, NSC766906), vemurafenib (NSC761431), ravoxertinib (NSC781343), sotorasib (NSC818433), MRTX1133 (NSC 836407), abemaciclib (NSC 768073), palbociclib (NSC758247), venetoclax (NSC 766270), SY5609 (NSC837396), enzalutamide (NSC755605), and darolutamide (NSC825331), were obtained from the National Cancer Institute (NCI) Developmental Therapeutics Program Chemical Repository. The FDA-approved anticancer drug set is available from the NCI Developmental Therapeutics Program. […] The stock solutions were prepared in dimethyl sulfoxide (DMSO, Sigma-Aldrich, St. Louis, MO, cat. D2650) at 800-fold the tested concentration and stored at -70 degrees C prior to their use. All drugs and investigational agents were tested over a range starting from a high concentration at or near the clinical Cmax and decreasing in half-log increments. If the clinical Cmax for an agent had not been determined, the highest concentration tested was 10 microM.
Cell Culture. All cells were maintained in an incubator at 37 degrees C and 5% CO2 with 95% humidity. The PDC lines were cultured according to standard operating procedures established by the NCI PDMR (https://pdmr.cancer.gov/sops/default.htm). All PDCs were thawed and cultured in Matrigel-coated flasks prepared with a working solution of 1X Ham's F-12 nutrient mix, without supplementation (Invitrogen, Waltham, MA, cat. 11765054), 100 U/mL penicillin-streptomycin (Invitrogen, cat. 15140122), and 2.5% Matrigel (Corning Inc., Corning, NY, cat. 354248) for the first three passages. The 354836-022-R-J1-PDC, 475296-252-R-J1-PDC, and 997726-040-R-J2-PDC lines were cultured in 6A media, which includes advanced DMEM/F-12 (Thermo Fisher Scientific, cat. 12634028), 10 mM HEPES (Thermo Fisher Scientific, cat. 15630080), 1X GlutaMAX supplement (Thermo Fisher Scientific, cat. 35050061), 0.1 mg/mL primocin (InvivoGen, San Diego, CA, cat. ant-pm-2), 10% defined fetal bovine serum, heat inactivated (HyClone Laboratories Inc., Logan, UT, cat. SH30070.03HI), 50% L-WRN conditioned media (ATCC, cat. CRL-3276), 1.25 mM N-Acetyl-L-cysteine (Sigma-Aldrich, cat. A9165), 10 mM nicotinamide (Sigma-Aldrich, cat. N0636), 1X B-27 supplement (Thermo Fisher Scientific, cat. 17504044), 1X N-2 supplement (Thermo Fisher Scientific, cat. 17502048), and 10 microM Y-27632 dihydrochloride (Tocris Bioscience, Bristol, United Kingdom, cat. 1254). The 624824-186-R-J2-PDC line was cultured in 6C/Colon 1B media, which includes all 6A media components plus 50 ng/mL human EGF recombinant protein (Thermo Fisher Scientific, cat. PHG0311). […]

[1] = curve of first compound, second compound 0.0316 µM
[2] = curve of first compound, second compound 0.1 µM
[3] = curve of first compound, second compound 0.316 µM
[4] = curve of first compound, second compound 1 µM
[5] = curve of first compound, second compound 3.16 µM
[6] = curve of first compound, second compound 10 µM
[7] = second compound 0.0316 µM, first compound 0.0316 µM
[8] = second compound 0.0316 µM, first compound 0.1 µM
[9] = second compound 0.0316 µM, first compound 0.316 µM
[10] = second compound 0.0316 µM, first compound 1 µM
[11] = second compound 0.0316 µM, first compound 3.16 µM
[12] = second compound 0.0316 µM, first compound 10 µM
[13] = second compound 0.1 µM, first compound 0.0316 µM
[14] = second compound 0.1 µM, first compound 0.1 µM
[15] = second compound 0.1 µM, first compound 0.316 µM
[16] = second compound 0.1 µM, first compound 1 µM
[17] = second compound 0.1 µM, first compound 3.16 µM
[18] = second compound 0.1 µM, first compound 10 µM
[19] = second compound 0.316 µM, first compound 0.0316 µM
[20] = second compound 0.316 µM, first compound 0.1 µM
[21] = second compound 0.316 µM, first compound 0.316 µM
[22] = second compound 0.316 µM, first compound 1 µM
[23] = second compound 0.316 µM, first compound 3.16 µM
[24] = second compound 0.316 µM, first compound 10 µM
[25] = second compound 1 µM, first compound 0.0316 µM
[26] = second compound 1 µM, first compound 0.1 µM
[27] = second compound 1 µM, first compound 0.316 µM
[28] = second compound 1 µM, first compound 1 µM
[29] = second compound 1 µM, first compound 3.16 µM
[30] = second compound 1 µM, first compound 10 µM
[31] = second compound 3.16 µM, first compound 0.0316 µM
[32] = second compound 3.16 µM, first compound 0.1 µM
[33] = second compound 3.16 µM, first compound 0.316 µM
[34] = second compound 3.16 µM, first compound 1 µM
[35] = second compound 3.16 µM, first compound 3.16 µM
[36] = second compound 3.16 µM, first compound 10 µM
[37] = second compound 10 µM, first compound 0.0316 µM
[38] = second compound 10 µM, first compound 0.1 µM
[39] = second compound 10 µM, first compound 0.316 µM
[40] = second compound 10 µM, first compound 1 µM
[41] = second compound 10 µM, first compound 3.16 µM
[42] = second compound 10 µM, first compound 10 µM
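Further: spheroids exposed to compound for 7 days before viability read.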
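Wherever viability, T/C is given: 100% = DMSO vehicle-treated spheroids.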

IC50 [1]: 0.25 µM | IC50 [2]: 0.115 µM | IC50 [3]: < 0.0316 µM | IC50 [4]: < 0.0316 µM | IC50 [5]: < 0.0316 µM | IC50 [6]: < 0.0316 µM
SMILES: C#Cc1c(F)ccc2cc(O)cc(-c3ncc4c(N5CC6CCC(C5)N6)nc(OCC56CCCN5CC(F)C6)nc4c3F)c12 (configuration not stated) + Cc1nc(NC(=O)N2CCCC2C(N)=O)sc1-c1ccnc(C(C)(C)C(F)(F)F)c1
viability, T/C [7]: 88.3% | viability, T/C [8]: 66.7% | viability, T/C [9]: 44.4% | viability, T/C [10]: 32.9% | viability, T/C [11]: 27.4% | viability, T/C [12]: 20% | viability, T/C [13]: 72.3% | viability, T/C [14]: 51.2% | viability, T/C [15]: 37.7% | viability, T/C [16]: 26.1% | viability, T/C [17]: 20.8% | viability, T/C [18]: 16.4% | viability, T/C [19]: 46% | viability, T/C [20]: 30.1% | viability, T/C [21]: 22.6% | viability, T/C [22]: 15.6% | viability, T/C [23]: 11.7% | viability, T/C [24]: 10.2% | viability, T/C [25]: 27.2% | viability, T/C [26]: 19.1% | viability, T/C [27]: 13% | viability, T/C [28]: 9.14% | viability, T/C [29]: 7.33% | viability, T/C [30]: 5.95% | viability, T/C [31]: 11% | viability, T/C [32]: 7.63% | viability, T/C [33]: 5.67% | viability, T/C [34]: 4.44% | viability, T/C [35]: 4% | viability, T/C [36]: 1.21% | viability, T/C [37]: 2.71% | viability, T/C [38]: 3.19% | viability, T/C [39]: 2.3% | viability, T/C [40]: 2.05% | viability, T/C [41]: 1.56% | viability, T/C [42]: 0.74%

IC50 (curve of compound): > 10 µM
SMILES: CNC(=O)c1ccc(N2C(=S)N(c3ccc(C#N)c(C(F)(F)F)c3)C(=O)C2(C)C)cc1F
viability, T/C (compound 0.0316 µM): 96.3% [middle of 4 runs] | viability, T/C (compound 0.1 µM): 87.5% [middle of 4 runs] | viability, T/C (compound 1 µM): 90.5% [middle of 4 runs] | viability, T/C (compound 3.16 µM): 82.8% [middle of 4 runs] | viability, T/C (compound 10 µM): 72% [middle of 4 runs]

IC50 [1]: > 10 µM | IC50 [2]: 9.46 µM | IC50 [3]: 8.25 µM | IC50 [4]: 7.02 µM | IC50 [5]: 3.02 µM | IC50 [6]: 0.666 µM
SMILES: C[C@@H](NC(=O)c1ncnc(N)c1Cl)c1ncc(C(=O)Nc2cc(C(F)(F)F)c(Cl)cn2)s1 + CC(Nc1ncnc2nc[nH]c12)c1cc2cccc(Cl)c2c(=O)n1-c1ccccc1
viability, T/C [7]: 76.3% | viability, T/C [8]: 81.8% | viability, T/C [9]: 86.3% | viability, T/C [10]: 104% | viability, T/C [11]: 79% | viability, T/C [12]: 51.3% | viability, T/C [13]: 92.4% | viability, T/C [14]: 96.4% | viability, T/C [15]: 88.2% | viability, T/C [16]: 93.4% | viability, T/C [17]: 76.5% | viability, T/C [18]: 48.5% | viability, T/C [19]: 92.7% | viability, T/C [20]: 78% | viability, T/C [21]: 93.2% | viability, T/C [22]: 83.2% | viability, T/C [23]: 79.4% | viability, T/C [24]: 44.1% | viability, T/C [25]: 99.6% | viability, T/C [26]: 92.8% | viability, T/C [27]: 96.4% | viability, T/C [28]: 93.8% | viability, T/C [29]: 69.4% | viability, T/C [30]: 41.4% | viability, T/C [31]: 90.1% | viability, T/C [32]: 74.8% | viability, T/C [33]: 78% | viability, T/C [34]: 77.9% | viability, T/C [35]: 48.8% | viability, T/C [36]: 30% | viability, T/C [37]: 63.8% | viability, T/C [38]: 60.8% | viability, T/C [39]: 54.6% | viability, T/C [40]: 48.5% | viability, T/C [41]: 33.4% | viability, T/C [42]: 21.2%

IC50 (curve of compound): 5.64 µM [middle of 4 runs]
SMILES: CCCS(=O)(=O)Nc1ccc(F)c(C(=O)c2c[nH]c3ncc(-c4ccc(Cl)cc4)cc23)c1F
viability, T/C (compound 0.0316 µM): 91.5% [middle of 4 runs] | viability, T/C (compound 0.1 µM): 91.1% [middle of 4 runs] | viability, T/C (compound 0.316 µM): 101% (2×) and 103% and 90.9% | viability, T/C (compound 1 µM): 99.5% [middle of 4 runs] | viability, T/C (compound 3.16 µM): 89.8% [middle of 4 runs] | viability, T/C (compound 10 µM): 16.1% [middle of 4 runs]
